Assay results from patent US20230060174A1, “PHARMACEUTICAL COMPOSITION OF TRICYCLIC PDE3/PDE4 DUAL INHIBITOR COMPOUND” (CHIA TAI TIANQING PHARMACEUTICAL GROUP CO., LTD., priority 2020, published 2023).

Legend:
CYP3A4 = molecular target: T1, CYP3A4 (Homo sapiens, UniProt P08684); assay: Inhibition of human liver microsomal CYP3A4 (midazolam probe); type: in vitro ADME; conditions: human liver microsomes
T1 construct: co-incubated with human liver microsomes; from tissue; host or cells: human liver microsomes
T1 sequence (P08684 whole entry): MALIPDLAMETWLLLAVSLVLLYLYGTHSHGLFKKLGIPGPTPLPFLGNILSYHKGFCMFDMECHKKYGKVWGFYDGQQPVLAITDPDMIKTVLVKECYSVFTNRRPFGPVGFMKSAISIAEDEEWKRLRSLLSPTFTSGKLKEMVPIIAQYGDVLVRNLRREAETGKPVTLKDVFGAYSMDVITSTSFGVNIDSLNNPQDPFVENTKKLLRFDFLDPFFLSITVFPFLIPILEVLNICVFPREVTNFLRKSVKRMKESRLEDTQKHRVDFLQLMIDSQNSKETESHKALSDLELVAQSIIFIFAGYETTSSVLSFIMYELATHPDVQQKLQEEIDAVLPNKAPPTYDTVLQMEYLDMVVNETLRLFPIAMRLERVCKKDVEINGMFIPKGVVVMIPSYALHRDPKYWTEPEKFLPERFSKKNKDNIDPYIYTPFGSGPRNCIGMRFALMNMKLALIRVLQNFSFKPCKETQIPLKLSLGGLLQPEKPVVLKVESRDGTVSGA
Experimental: (§1) Experimental Example 6: Inhibitory effect on activity of isoenzymes (CYP1A2, CYP2C9, CYP2C19, CYP2D6 and CYP3A4) of human liver microsomal cytochrome P450 A total of 5 specific probe substrates of 5 isoenzymes of CYP, namely phenacetin (CYP1A2), diclofenac (CYP2C9), (S)-mephenytoin (CYP2C19), dextromethorphan (CYP2D6) and midazolam (CYP3A4) were each co-incubated with human liver microsomes and the compound of formula (I), and then reduced nicotinamide adenine dinucleotide phosphate (NADPH) was added to initiate the reaction. After the reaction was completed, the samples were treated, and the concentrations of 5 metabolites (acetaminophen, 4′-hydroxydiclofenac, 4′-hydroxymephenytoin, dextrorphan and l′-hydroxymidazolam) generated from the specific substrates were quantitatively detected by lC-MS/MS to calculate the correcnondino- half maximal inhibitory concentrationc (IC50)

CYP2C19 = molecular target: T2, CYP2C19 (Homo sapiens, UniProt P33261); assay: Inhibition of human liver microsomal CYP2C19 ((S)-mephenytoin probe); type: in vitro ADME; conditions: human liver microsomes
T2 construct: co-incubated with human liver microsomes; from tissue; host or cells: human liver microsomes
T2 sequence (P33261 whole entry): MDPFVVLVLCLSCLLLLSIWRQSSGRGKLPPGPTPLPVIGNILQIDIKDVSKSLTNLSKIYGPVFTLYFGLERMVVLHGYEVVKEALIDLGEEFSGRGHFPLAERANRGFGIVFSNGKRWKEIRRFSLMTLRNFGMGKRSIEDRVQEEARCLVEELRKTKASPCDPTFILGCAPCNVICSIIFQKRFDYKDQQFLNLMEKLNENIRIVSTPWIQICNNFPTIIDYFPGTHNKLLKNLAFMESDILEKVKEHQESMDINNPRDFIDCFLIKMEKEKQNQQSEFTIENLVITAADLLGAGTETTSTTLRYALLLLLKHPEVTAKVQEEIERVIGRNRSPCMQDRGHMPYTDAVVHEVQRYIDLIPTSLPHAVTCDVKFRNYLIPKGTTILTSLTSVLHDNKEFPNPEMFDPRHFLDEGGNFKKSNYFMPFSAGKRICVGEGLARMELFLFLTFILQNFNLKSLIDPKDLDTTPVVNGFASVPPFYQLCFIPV
Experimental: as §1

recombinant human PDE3A = molecular target: T3, recombinant human PDE3A (Homo sapiens, UniProt Q14432); assay: In vitro inhibitory activity against PDE 3A enzyme (fluorescence polarization); type: biochemical; conditions: 1 μM cAMP substrate
T3 construct: amino acid 669-end; GST (N); host or cells: Sf9 insect cells (baculovirus)
T3 sequence (Q14432 669-1141 limits assumed): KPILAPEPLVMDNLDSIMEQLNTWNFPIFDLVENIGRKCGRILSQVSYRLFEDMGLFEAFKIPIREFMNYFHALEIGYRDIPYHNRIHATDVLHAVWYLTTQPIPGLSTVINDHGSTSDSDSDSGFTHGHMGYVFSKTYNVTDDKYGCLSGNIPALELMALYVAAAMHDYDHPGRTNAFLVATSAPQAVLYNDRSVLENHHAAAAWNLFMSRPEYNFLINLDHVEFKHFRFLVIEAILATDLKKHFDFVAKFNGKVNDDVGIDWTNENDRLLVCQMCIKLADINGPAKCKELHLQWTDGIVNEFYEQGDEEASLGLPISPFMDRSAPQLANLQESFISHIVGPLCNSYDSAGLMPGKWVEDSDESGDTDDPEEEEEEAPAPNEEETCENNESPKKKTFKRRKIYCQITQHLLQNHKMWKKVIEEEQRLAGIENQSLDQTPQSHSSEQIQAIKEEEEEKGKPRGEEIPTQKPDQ
Experimental: Experimental Example 3: In vitro detection of the inhibitory activity of the compound against PDE 3A enzyme
Objective: to determine the AMP/GMP expression based on fluorescence polarization, i.e., to trace binding of AMP/GMP to antibody so as to indicate enzyme activity.
Buffer solution: 10 mM Tris—HCl (pH 7.5), 5 mM MgCl2, 0.01% Brij 35, 1 mM dithiothreitol (DTT), and 1% DMSO.
Enzyme: recombinant human PDE3A (Gene accession number: NM 000921; amino acid 669-end) was expressed by baculovirus in Sf9 insect cells using an N-terminal GST tag, with the molecular weight being 84 kDa.
Enzyme substrate: 1 μM cAMP Detection: TranscreenerOAMP2/GMP2 antibody and AMP2/GMP2 AlexaFluor633 tracer.
Procedures: • 1. The recombinant human PDE3A enzyme and enzyme substrate (μM cAMP) were each dissolved in newly prepared experimental buffer solution; • 2. […] The measurement range of fluorescence polarization was […]. • Data analysis: the fluorescence polarization signal was converted to nM based on AMP/GMP standard curve and the percentage enzyme activity relative to DMSO control calculated by Excel. […] The measurement range of fluorescence polarization was Ex/Em=620/688. • […]

[1] = tested on: cigarette smoke-induced rat acute lung injury model; assay: Pharmacodynamic study in cigarette smoke-induced rat acute lung injury model; type: in vivo, Sprague-Dawley rats; conditions: rats, atomized 0.05 or 0.15 mg/mL for 30 min daily
Experimental: Experimental Example 7: Pharmacodynamic study in cigarette smoke-induced rat acute lung injury model
Male Sprague-Dawley rats (supplied by Shanghai SLAC Laboratory Animal Co., Ltd.), SPF grade, approximately 200 g.
Procedures • 1. Animals were randomly divided into 6 groups according to body weight after arrival and a one-week acclimation; • 2. On days 1-3 of the experiment, the corresponding compound of each group was atomized for 30 min. Then the animals in the model group and the treatment groups were exposed to cigarette smoke for 1 h, and after a 4-h interval, the animals were exposed to cigarette smoke again for 1 h. Cigarette smoke was given twice daily for 3 consecutive days. The control group animals were exposed to room air; • 3. On day 4 of the experiment, the corresponding compound of each group was atomized for 30 min, and then the animals in the model group and the treatment groups were given the atomized 150 μg/mL LPS for 15 min by inhalation. After 3 h (from the time starting atomization), the animals were exposed to cigarette smoke for 1 h, and then the lung function (Penh and F) of the animals was examined; bronchoalveolar lavage fluid (BALF) was collected for cell counting after the animals were euthanized with CO2. • 4. […]

CYP2D6 = molecular target: T4, CYP2D6 (Homo sapiens, UniProt P10635); assay: Inhibition of human liver microsomal CYP2D6 (dextromethorphan probe); type: in vitro ADME; conditions: human liver microsomes
T4 construct: co-incubated with human liver microsomes; from tissue; host or cells: human liver microsomes
T4 sequence (P10635 whole entry): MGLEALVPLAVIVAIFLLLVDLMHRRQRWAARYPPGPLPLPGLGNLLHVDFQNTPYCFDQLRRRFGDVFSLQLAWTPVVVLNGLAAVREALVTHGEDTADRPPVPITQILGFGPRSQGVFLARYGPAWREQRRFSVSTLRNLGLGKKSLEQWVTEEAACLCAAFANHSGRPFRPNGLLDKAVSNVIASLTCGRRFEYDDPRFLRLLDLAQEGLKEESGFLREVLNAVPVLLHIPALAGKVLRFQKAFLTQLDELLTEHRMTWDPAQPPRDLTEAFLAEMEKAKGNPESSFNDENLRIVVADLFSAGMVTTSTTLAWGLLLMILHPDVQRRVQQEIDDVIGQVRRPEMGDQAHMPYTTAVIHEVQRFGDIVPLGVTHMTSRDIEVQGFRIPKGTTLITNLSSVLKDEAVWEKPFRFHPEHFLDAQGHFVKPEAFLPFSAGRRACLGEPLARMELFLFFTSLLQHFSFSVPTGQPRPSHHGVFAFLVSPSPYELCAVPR
Experimental: as §1

`CCOc1cc2c(cc1OC)-c1c/c(=N\c3c(C)cc(C)cc3C)n(CCNC(=O)c3c(O)nnn3C)c(=O)n1CC2` [Compound of formula (I)] showed an IC50 (CYP3A4) of at least 50 µM, an IC50 (CYP2C19) of at least 50 µM and an IC50 (recombinant human PDE3A) of 30 pM. For the same compound, the “Number of white blood cells in the bronchoalveolar lavage fluid” value ([1]; FIG. 5) was “effectively reduce”, the “Airway resistance index Penh (Mch challenge pulmonary function test)” value ([1]; FIG. 6) was “effectively reduce” and the IC50 (CYP2D6) was at least 50 µM.
